From PMC2678945 (The Journal of neuroscience : the official journal of the …, 2008)
Read-outs that look alike come from different tables or passages of the source. Values belong to the compound of their own block, whether it stands above or below them.

Assays:
hTRPA1-dTM5 [1] = target: T1, hTRPA1-dTM5 (Homo sapiens / Drosophila melanogaster, UniProt O75762+Q7Z020); type: cell-based
hTRPA1 [2] = target: T2, hTRPA1 (Homo sapiens, UniProt O75762); assay: FLIPR calcium assay, wild type hTRPA1; type: cell-based
mTRPA1 [3] = target: T3, mTRPA1 (Mus musculus, UniProt Q8BLA8); settings: read-out: IC50, inhibition of MO-induced mTRPA1 activity
mTRPA1-S876V/T877L = mTRPA1-S876V/T877L (Mus musculus, UniProt Q8BLA8, S876V/T877L); type: cell-based
hTRPA1-mTM5-6 = hTRPA1-mTM5-6 (Homo sapiens, UniProt O75762, A939G/E920D/H933Y/I890V/I905L/I946M/L867F/L894F/L927F/P897A/S900T/S921A/S937T/S943A/V875G/V942I/Y926L); assay: FLIPR calcium assay, chimera hTRPA1-mTM5-6; type: cell-based, human / mouse
fugu-TRPA1 = assay: FLIPR calcium assay, fugu-TRPA1; type: cell-based, Takifugu
dTRPA1-mN = dTRPA1-mN (Mus musculus / Drosophila melanogaster, UniProt Q7Z020+Q8BLA8); type: cell-based
dTRPA1 = target: T4, dTRPA1 (Drosophila melanogaster, UniProt Q7Z020); assay: Whole-cell patch-clamp, HEK293T cells expressing dTRPA1; type: cell-based; settings: at +120 mV
T4 sequence (Q7Z020 1-1197): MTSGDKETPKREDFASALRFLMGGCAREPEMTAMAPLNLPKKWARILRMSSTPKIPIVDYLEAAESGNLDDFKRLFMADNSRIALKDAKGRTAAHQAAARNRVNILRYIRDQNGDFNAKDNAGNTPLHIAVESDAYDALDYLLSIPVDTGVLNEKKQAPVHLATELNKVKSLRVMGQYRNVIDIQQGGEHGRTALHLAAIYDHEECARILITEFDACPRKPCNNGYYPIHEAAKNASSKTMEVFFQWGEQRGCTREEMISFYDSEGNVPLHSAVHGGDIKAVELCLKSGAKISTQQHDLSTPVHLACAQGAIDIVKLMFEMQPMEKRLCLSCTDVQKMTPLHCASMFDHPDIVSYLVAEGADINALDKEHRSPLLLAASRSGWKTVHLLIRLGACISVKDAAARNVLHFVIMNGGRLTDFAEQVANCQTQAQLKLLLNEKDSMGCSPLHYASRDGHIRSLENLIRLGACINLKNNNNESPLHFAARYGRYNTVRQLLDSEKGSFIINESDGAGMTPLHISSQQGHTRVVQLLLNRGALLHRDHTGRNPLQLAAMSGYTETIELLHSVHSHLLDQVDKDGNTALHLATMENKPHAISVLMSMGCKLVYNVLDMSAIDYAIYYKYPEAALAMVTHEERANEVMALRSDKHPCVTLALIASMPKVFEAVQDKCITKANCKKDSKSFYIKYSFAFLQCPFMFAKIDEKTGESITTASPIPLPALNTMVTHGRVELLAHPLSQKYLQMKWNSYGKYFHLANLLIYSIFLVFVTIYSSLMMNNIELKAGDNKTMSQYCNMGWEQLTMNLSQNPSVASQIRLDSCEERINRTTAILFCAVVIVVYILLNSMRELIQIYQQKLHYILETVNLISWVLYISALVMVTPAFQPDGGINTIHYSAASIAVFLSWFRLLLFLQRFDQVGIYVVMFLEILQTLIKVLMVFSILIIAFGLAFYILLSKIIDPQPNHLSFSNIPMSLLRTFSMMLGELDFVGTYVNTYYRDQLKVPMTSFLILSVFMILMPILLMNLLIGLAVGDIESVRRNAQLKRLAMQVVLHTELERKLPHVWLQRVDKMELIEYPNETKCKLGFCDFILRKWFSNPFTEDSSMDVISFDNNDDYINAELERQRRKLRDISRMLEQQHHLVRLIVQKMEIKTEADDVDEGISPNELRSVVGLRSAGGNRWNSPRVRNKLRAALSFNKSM

mTRPA1 [4] = target: T3, mTRPA1; assay: Whole-cell patch-clamp, HEK293T cells expressing mTRPA1; type: cell-based; settings: 100 μM MO in the presence of 500 μM menthol; n = 7
mosquito-TRPA1 = assay: FLIPR calcium assay, mosquito-TRPA1; type: cell-based, Anopheles gambiae
hTRPA1-FGFATLIAM = hTRPA1-FGFATLIAM (Homo sapiens, UniProt O75762, I905L/I946M/L867F/L894F/P897A/S900T/S943A/V875G/V942I); assay: FLIPR calcium assay, mutant hTRPA1-[…]; type: cell-based
mTRPA1 [5] = target: T3, mTRPA1; assay: cell-based
hTRPA1-V875G = hTRPA1-V875G (Homo sapiens, UniProt O75762, V875G); assay: FLIPR calcium assay, mutant hTRPA1-V875G; type: cell-based
mTRPA1-hTM5-6 = mTRPA1-hTM5-6 (Mus musculus, UniProt Q8BLA8, A900P/A924S/A946S/D923E/F870L/F897L/F930L/G878V/G942A/I945V/L908I/L929Y/M949I/T903S/T940S/V893I/Y936H); assay: FLIPR calcium assay, chimera mTRPA1-hTM5-6; type: cell-based, mouse / human
hTRPA1-dTM5 [6] = target: T1, hTRPA1-dTM5; assay: Whole-cell patch-clamp, HEK293T cells expressing hTRPA1-dTM5; type: cell-based; settings: 250 μM menthol
mTRPA1-dTM5 = assay: Whole-cell patch-clamp, HEK293T cells expressing mTRPA1-dTM5; type: cell-based, mouse / Drosophila melanogaster; settings: 50 μM menthol
hTRPA1 [7] = target: T2, hTRPA1; assay: Whole-cell patch-clamp, HEK293T cells expressing hTRPA1; type: cell-based; settings: 250 μM menthol; at +120 mV; n = 11

T2 sequence (O75762 whole entry): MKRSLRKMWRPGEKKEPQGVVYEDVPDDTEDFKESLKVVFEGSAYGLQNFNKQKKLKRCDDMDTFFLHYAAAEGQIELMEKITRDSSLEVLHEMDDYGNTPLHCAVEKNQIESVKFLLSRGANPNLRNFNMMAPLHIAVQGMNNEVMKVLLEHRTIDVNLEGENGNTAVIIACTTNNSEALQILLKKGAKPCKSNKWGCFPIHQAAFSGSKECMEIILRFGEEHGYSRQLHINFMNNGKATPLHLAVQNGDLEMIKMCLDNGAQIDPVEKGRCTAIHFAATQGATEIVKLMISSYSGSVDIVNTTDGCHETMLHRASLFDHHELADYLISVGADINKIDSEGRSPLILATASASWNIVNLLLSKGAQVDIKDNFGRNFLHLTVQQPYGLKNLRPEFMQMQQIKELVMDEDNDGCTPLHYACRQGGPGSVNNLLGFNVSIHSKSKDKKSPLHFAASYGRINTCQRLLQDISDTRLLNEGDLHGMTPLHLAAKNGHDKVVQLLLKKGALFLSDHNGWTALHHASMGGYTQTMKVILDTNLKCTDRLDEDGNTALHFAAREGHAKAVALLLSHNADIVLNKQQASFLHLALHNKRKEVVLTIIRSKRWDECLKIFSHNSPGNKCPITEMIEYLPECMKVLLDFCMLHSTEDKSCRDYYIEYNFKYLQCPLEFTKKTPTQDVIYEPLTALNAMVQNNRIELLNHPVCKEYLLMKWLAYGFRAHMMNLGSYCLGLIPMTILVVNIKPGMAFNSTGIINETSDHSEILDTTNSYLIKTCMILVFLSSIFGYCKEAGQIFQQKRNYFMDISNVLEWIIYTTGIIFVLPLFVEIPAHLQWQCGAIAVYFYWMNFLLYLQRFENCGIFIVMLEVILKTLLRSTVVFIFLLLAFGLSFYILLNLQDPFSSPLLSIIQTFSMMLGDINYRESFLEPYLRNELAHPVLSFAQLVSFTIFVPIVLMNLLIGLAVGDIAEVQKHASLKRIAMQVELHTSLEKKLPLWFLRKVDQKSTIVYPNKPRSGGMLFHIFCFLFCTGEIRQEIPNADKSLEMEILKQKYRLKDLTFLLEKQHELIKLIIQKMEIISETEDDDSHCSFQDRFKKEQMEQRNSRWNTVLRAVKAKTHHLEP
T3 sequence (Q8BLA8 whole entry): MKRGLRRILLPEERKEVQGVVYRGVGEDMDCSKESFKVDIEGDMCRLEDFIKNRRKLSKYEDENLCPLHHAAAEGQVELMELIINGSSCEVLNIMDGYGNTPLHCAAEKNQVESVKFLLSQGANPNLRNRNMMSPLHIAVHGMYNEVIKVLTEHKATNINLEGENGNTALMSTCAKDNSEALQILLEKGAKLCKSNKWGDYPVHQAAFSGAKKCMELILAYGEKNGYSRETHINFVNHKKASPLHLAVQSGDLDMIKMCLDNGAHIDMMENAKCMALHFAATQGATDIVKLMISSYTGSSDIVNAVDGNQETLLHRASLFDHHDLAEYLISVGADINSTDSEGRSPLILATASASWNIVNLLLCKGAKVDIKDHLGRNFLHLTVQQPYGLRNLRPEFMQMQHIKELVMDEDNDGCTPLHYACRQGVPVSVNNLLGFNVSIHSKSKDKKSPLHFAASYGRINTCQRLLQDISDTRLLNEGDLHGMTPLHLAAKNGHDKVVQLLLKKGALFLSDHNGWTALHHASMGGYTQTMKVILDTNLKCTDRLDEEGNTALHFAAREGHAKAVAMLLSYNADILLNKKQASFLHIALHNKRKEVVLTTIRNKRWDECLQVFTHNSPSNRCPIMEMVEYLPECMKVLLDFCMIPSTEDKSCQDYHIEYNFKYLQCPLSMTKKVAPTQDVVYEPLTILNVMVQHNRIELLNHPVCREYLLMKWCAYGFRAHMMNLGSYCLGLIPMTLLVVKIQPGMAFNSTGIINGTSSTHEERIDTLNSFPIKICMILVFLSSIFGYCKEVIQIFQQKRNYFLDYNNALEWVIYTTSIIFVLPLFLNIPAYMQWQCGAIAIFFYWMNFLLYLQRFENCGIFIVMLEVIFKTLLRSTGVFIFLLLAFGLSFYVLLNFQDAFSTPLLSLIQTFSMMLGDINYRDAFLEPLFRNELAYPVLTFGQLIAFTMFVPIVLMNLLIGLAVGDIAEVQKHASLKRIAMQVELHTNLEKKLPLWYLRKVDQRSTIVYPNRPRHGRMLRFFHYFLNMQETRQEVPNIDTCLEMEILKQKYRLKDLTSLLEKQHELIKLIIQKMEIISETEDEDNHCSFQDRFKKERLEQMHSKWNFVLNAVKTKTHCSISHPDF
Chain of mTRPA1-hTM5-6 (Q8BLA8 1-1125 with the stated changes): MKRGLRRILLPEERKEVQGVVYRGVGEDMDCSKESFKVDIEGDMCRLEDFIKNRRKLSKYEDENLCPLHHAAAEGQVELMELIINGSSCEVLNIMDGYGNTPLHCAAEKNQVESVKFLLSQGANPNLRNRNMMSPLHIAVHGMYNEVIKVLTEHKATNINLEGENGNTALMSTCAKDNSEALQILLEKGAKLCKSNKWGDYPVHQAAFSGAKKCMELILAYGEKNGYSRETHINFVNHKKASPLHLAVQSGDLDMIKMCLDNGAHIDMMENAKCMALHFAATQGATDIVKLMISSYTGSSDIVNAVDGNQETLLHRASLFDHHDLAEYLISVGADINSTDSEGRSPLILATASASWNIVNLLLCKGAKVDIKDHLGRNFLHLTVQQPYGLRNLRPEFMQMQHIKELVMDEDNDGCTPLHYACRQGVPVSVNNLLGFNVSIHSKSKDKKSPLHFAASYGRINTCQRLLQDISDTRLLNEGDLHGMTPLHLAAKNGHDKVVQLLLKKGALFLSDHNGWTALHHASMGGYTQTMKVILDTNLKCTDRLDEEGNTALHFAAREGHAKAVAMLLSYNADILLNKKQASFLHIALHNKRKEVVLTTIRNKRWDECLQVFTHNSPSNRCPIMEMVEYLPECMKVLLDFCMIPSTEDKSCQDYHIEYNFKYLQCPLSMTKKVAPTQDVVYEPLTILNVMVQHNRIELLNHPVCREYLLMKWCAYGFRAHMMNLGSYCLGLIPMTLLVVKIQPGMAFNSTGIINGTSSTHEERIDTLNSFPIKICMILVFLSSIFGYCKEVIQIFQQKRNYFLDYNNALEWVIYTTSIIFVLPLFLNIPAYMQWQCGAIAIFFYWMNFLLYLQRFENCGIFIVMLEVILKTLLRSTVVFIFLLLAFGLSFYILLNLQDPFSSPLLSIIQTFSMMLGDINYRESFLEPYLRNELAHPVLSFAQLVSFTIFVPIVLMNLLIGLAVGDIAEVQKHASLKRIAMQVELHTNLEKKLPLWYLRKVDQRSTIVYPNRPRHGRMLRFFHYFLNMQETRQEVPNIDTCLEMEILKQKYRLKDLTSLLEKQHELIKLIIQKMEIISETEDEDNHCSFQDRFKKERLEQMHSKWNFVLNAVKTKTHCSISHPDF
Chain of hTRPA1-mTM5-6 (O75762 1-1119 with the stated changes): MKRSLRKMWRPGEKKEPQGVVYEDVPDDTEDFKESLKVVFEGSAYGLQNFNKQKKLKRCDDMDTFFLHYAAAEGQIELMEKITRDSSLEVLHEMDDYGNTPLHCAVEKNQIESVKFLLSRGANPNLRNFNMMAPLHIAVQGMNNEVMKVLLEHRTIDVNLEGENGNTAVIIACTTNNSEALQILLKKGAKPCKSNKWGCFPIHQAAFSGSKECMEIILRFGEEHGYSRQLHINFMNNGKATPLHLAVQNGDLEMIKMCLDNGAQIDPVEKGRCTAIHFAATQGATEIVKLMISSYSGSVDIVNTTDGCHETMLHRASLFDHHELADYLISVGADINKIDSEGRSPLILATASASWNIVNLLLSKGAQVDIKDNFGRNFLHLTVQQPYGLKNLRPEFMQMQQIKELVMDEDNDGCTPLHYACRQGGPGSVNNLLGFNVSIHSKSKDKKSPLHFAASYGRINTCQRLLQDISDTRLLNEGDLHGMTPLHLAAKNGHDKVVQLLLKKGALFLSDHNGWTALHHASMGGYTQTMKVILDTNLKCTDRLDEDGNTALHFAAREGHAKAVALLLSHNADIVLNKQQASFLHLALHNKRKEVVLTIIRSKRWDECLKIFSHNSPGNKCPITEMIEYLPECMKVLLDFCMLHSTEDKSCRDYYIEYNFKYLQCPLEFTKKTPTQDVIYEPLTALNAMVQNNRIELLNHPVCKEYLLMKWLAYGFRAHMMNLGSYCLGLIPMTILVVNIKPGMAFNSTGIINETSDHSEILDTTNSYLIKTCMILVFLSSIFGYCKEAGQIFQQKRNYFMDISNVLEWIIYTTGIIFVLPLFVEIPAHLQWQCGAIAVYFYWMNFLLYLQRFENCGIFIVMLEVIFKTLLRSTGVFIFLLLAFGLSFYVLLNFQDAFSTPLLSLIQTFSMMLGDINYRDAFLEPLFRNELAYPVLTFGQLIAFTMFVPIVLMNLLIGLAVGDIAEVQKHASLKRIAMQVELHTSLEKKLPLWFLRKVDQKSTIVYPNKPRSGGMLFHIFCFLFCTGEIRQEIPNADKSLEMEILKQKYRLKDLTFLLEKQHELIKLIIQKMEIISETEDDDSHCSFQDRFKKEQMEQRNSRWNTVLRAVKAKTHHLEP
Chain of hTRPA1-V875G (O75762 whole entry V875G): as the sequence (O75762 whole entry) above, with V875G counted along it
Chain of hTRPA1-FGFATLIAM (O75762 whole entry L867F/V875G/L894F/P897A/S900T/I905L/V942I/S943A/I946M): as the sequence (O75762 1-1119 with the stated changes) above, with V890I, D920E, A921S, L926Y, F927L, Y933H, T937S, G939A counted along it
Chain of mTRPA1-S876V/T877L (Q8BLA8 whole entry S876V/T877L): as the sequence (Q8BLA8 whole entry) above, with S876V, T877L counted along it

Compound: CC(C)=CCC/C(C)=C/CC/C(C)=C/CSc1ccccc1C(=O)O [FTS, Farnesyl thiosalicylic acid]
hTRPA1-dTM5 EC50 (Activation) (hTRPA1-dTM5 [1]): No activation
EC50 (hTRPA1 [2]; read-out: hTRPA1 EC50 (Activation)): 7.3 ± 1.1 µM

Compound: CC(=NO)/C(C)=C\c1ccc(Cl)cc1 [AP18, (Z)-4-(4-chlorophynyl)-3-methylbut-3-en-2-oxime]
hTRPA1-dTM5 IC50 (Inhibition) (hTRPA1-dTM5 [1]): No inhibition
IC50 (mTRPA1 [3]): 0.69 ± 0.09 µM
IC50 (hTRPA1 [2]; read-out: hTRPA1 IC50 (Inhibition)): 0.6 ± 0.17 µM
inhibitory effect on MO-induced mTRPA1-S876V/T877L activity (mTRPA1-S876V/T877L): totally abolished

Compound: Cl.Cl.Cl.Cl.Cl.Cl.N.N.N.N.N.N.N.N.N.N.N.N.N.N.[O-2].[O-2].[Ru+3].[Ru+3].[Ru+4] [Ruthenium Red, ruthenium red]
IC50 (hTRPA1-dTM5 [1]; read-out: hTRPA1-dTM5 IC50 (Inhibition)): 0.48 ± 0.03 µM

IC50 (hTRPA1 [2]): 12.9 ± 2.67 µM
Compound: CC(C)c1ccc(NC(=O)Cn2cnc3c2c(=O)n(C)c(=O)n3C)cc1 [HC030031, 2-(1,3-dimethyl-2,6-dioxo-1,2,3,6-tetrahydro-7H-purin-7-yl)-N-(4-isopropylphenyl)acetamide]

Compound: CC(C)[C@@H]1CC[C@@H](C)C[C@H]1O [Menthol, (-)-Menthol]
hTRPA1-dTM5 EC50 (Activation) (hTRPA1-dTM5 [1]; FLIPR, responses normalized to 100 μM MO): No activation
IC50 (hTRPA1-mTM5-6): 71 ± 16.5 µM
menthol sensitivity of fugu-TRPA1 (fugu-TRPA1): not sensitive
menthol effect at dTRPA1-mN (dTRPA1-mN): ineffective
change in evoked current in dTRPA1 cells (dTRPA1; 25-100 μM menthol, n = 7): -0.53 ± 0.3 pA/pF
activation of dTRPA1 current (dTRPA1; 250-500 μM menthol, 3 min of recording): ineffective
MO-induced mTRPA1 currents at +120 mV, normalized to currents elicited at +180 mV (mTRPA1 [4]): 16 ± 7%
menthol sensitivity of mosquito-TRPA1 (mosquito-TRPA1): not sensitive
IC50 (hTRPA1-FGFATLIAM): 36.6 ± 9 µM
IC50 (mTRPA1 [5]): 73.4 ± 11.5 µM
block of the response of hTRPA1 to 100 μM MO (hTRPA1 [2]): did not block
IC50 (hTRPA1-V875G): 119 ± 16.5 µM
EC50 (mTRPA1-hTM5-6): 43.9 ± 6.4 µM
inhibition of MO-evoked mTRPA1-hTM5-6 activity (mTRPA1-hTM5-6; FLIPR, 100 μM MO): not significantly inhibited
activation of hTRPA1-dTM5 current (hTRPA1-dTM5 [6]): completely abolished
activation of mTRPA1-dTM5 current (mTRPA1-dTM5): completely abolished
whole cell current density evoked in hTRPA1 cells (hTRPA1 [7]): 59.0 ± 10.2 pA/pF
